Values quoted from earlier work, collected in patent publication US20030190354A1 (priority 2002, published 2003).
Structures can show the parent of a compound that is named as a salt.

Settings: 0.2 M sodium chloride

octanol: water partition coefficient: 0.43
Compound: COc1ccc(C(CN(C)C)C2(O)CCCCC2)cc1 (racemic) [Venlafaxine hydrochloride, (R/S)-1-[2-(dimethylamino)-1-(4-methoxyphenyl)ethyl] cyclohexanol hydrochloride]
